Data published in patent US7183279B2, “Histogranin-like peptides and non-peptides, processes for their preparation and uses thereof” (University of Ottawa, priority 2006, dated 2007).
“Also recorded” adds a separate entry of the source. Like-named read-outs stand apart in the source and are kept apart here. Non-standard residues stand in square brackets, D forms with d. Residues, ends and D or L forms follow the SMILES beside them. Phe(4-Cl) = N[C@@H](Cc1ccc(Cl)cc1)C(=O)O

What was measured:
[1] = test system: Swiss Webster mice; test: Mouse writhing test (acetic acid-induced); format: in vivo; conditions: for AD50 (nmol/mouse): acetic acid i.p. 5 min after injection; for analgesia: i.v. administration, 1 μmol/kg; for analgesic activity after peripheral administration: oral and i.p. administrations
[2] = test system: Swiss Webster mice; test: Mouse tail flick assay (radiant heat); format: in vivo; conditions: i.c.v.; for AD50 (nmol/mouse): latency 5 min after injection
Experimental: Mouse tail flick assay. […] Briefly, the latency to withdraw the tail from a focused light stimulus was determined using a photocell. […] Baseline latencies were determined before experimental treatment as the mean of two trials and a maximal latency of 12 s was used to minimize tissue damage. Post-treatment latencies were determined 5 min after i.c.v. injection. The antinociceptive effect was expressed as the percentage of the maximum possible effect, as calculated by the formula: % MPE=[(post-injection latency-baseline latency)/(cutoff latency-baseline latency)]×100. […] Group % MPE means were compared using one-way ANOVAs and P≦0.05 was considered significant.

[3] = test system: Swiss Webster mice; test: Mouse rotarod assay; conditions: 10 nmol i.c.v.
Source text: Mouse rotarod assay. The rotarod treadmill (model 7600, UGO Basile, Italy) for mice was used to assess the motor side-effects of antinociceptive agents. […] The apparatus is constituted of a rod with a diameter of 2.5 cm suspended horizontally 50 cm above a plane working area. The rod is turning at a speed of 8 revolutions per min. Circular perpex separators are placed at regular intervals along the rod so that five mice can be tested at the same time. Before administering any compound, all animals are placed on the turning rod for one min in two consecutive rounds. Mice that fall from the rod during these conditioning experiments are excluded from the assay. For the assay, the test compounds were administered i.c.v. and the animals were placed on the turning rod for two min. The % of mice in groups of 10 mice which fell during this latter two min-experiment was recorded as the % of mice showing motor effects. Rotarod assays were conducted at different times (up to 60 min) after the administration of peptides. Statistical calculation were made using Student t-test. Results: Mouse writhing pain assay. […] The lengths of action of the various compounds were evaluated by measuring the time (T1/2) it took after injection of a specific dose of a compound to produce half-maximal effect. […] Analgesic effects of peripheral administrations. […] Mouse tail-flick assay.

[4] = test system: Swiss Webster mice; conditions: literature values; cited from earlier work
[5] = test system: Swiss Webster mice; test: Induction of tolerance to morphine, tail-flick latency; format: in vivo, mouse; conditions: for tail-flick latency on repeated dosing: 8 days
Experimental: Tail-flick latency to thermal pain was recorded 30 min after the i.p. administration(s) in the morning session of days 1, 3, 6 and 8 as indicated in the figure.

[6] = test system: rat; conditions: literature; cited from earlier work
[7] = sciatic nerve injury, literature; cited from earlier work
[8] = i.t. administration of NMDA, literature; cited from earlier work

Compound	Potency ratio relative to Histogranin (HN) ([1]; i.c.v.)	AD50 (nmol/mouse) ([1]; i.c.v.)	Potency ratio relative to [Ser1]HN [2]	AD50 (nmol/mouse) [2]	motor effect [3]	further results
N=C(N)NCCC[C@H]1NC(=O)[C@H](Cc2ccc(O)cc2)NC(=O)[C@H](Cc2ccc(Cl)cc2)NC(=O)CNC1=O [Compound I-1, Cyclo(-Gly-(p-chloro)Phe-Tyr-D-Arg-)] (cyclo(G[Phe(4-Cl)]Y[dR]))	135	0.17 nmol/mouse	12.5	9.1 nmol/mouse	did not cause any motor effect	fold more potent than morphine ([1]; i.c.v.): 3.9 fold; analgesia [1]: 84%; analgesic activity after peripheral administration [1]: dose-dependent analgesic activity; also recorded: Significant analgesic activity; analgesia in tail-flick assay in words [2]: more potent than HN
C[C@@H](O)[C@@H]1NC(=O)[C@@H](CCCNC(=N)N)NC(=O)[C@H](Cc2ccc(O)cc2)NC(=O)[C@H](Cc2ccc(Cl)cc2)NC1=O [Compound I-5, Cyclo(-Thr-(p-chloro)Phe-Tyr-D-Arg-)] (cyclo([Phe(4-Cl)]Y[dR]T))	2.14	10.7 nmol/mouse	2.96	38.5 nmol/mouse	did not cause any motor effect	–
CC(C)CC(NC(=O)C(NC(=O)C(CCCNC(=N)N)NC(=O)CNC(=O)C(CCC(N)=O)NC(=O)CN)C(C)O)C(=O)NC(Cc1ccc(O)cc1)C(=O)NCC(=O)NC(Cc1ccccc1)C(=O)O (stereo not shown) [HN-(7–15), reference compound] (H-GQGRTLYGF-OH; configuration not given here)	2.71	8.5 nmol/mouse	–	–	–	AD50 [4]: 8.5 nmol/mouse
N=C(N)NCCC[C@H](Nc1ccccc1NC(=O)Cc1ccc(O)cc1)C(N)=O [II-1, N-5-guanidinopentanamide-(2S)-yl-2-N-(p-hydroxyphenylacetyl) phenylenediamine]	3.54	6.5 nmol/mouse	8.0	14.2 nmol/mouse	did not cause any motor effect	potentiation of morphine analgesia ([1]; coadministration i.c.v. of subanalgesic dose (3 nmol) with morphine): left shift in the dose-response curve of morphine; also recorded: potentiates the analgesic effects of morphine; prolongation of morphine analgesia ([1]; coadministration with morphine 0.5 nmol i.c.v.): slightly prolongated; analgesia [1]: 35%; analgesic activity after peripheral administration [1]: dose-dependent analgesic activity; also recorded: Significant analgesic activity; analgesia in tail-flick assay in words [2]: more potent than HN; effect on analgesic effect of morphine ([5]; 4 mg/kg i.p. 30 min prior to morphine 10 mg/kg): potentiated the analgesic effect of morphine; effect on morphine tolerance ([5]; 4 mg/kg i.p. 30 min prior to morphine 10 mg/kg, days 6 and 8): inhibits morphine tolerance; tail-flick latency on repeated dosing ([5]; 4 mg/kg i.p. twice a day, alone): small increase in the tail-flick latency that was significant only on days 1 and 8
N=C(N)NCCC[C@H](Nc1ccc(C(F)(F)F)cc1NC(=O)Cc1ccc(O)cc1)C(N)=O [II-2, N-5-guanidinopentanamide-(2S)-yl-2-N-(p-hydroxyphenylacetyl)-4-trifluorometyl-phenylenediamine]	1.40	16.1 nmol/mouse	1.16	98.6 nmol/mouse	did not cause any motor effect	–
N=C(N)NCCC[C@@H](Nc1ccc(C(=O)O)cc1NC(=O)Cc1ccc(O)cc1)C(N)=O [II-3, N-5-guanidinopentanamide-(2R)-yl-2-N-(p-hydroxyphenylacetyl)-4-carboxy-phenylenediamine]	7.27	3.16 nmol/mouse	3.59	31.7 nmol/mouse	did not cause any motor effect	–
N=C(N)NCCC[C@@H](Nc1ccc(C(=O)c2ccc(Cl)cc2)cc1NC(=O)Cc1ccc(O)cc1)C(N)=O [II-4, N-5-guanidinopentanamide-(2R)-yl-2-N-(p-hydroxyphenylacetyl)-4-(p-chlorobenzoyl)-phenylenediamine]	8.87	2.61 nmol/mouse	8.70	13.1 nmol/mouse	did not cause any motor effect	–
N=C(N)NCCC[C@H](C(N)=O)n1c(-c2ccc(O)cc2)nc2cc(C(=O)O)ccc21 [III-1]	5.56	4.14 nmol/mouse	11.9	9.6 nmol/mouse	did not cause any motor effect	analgesic activity after peripheral administration [1]: dose-dependent analgesic activity; also recorded: Significant analgesic activity; analgesia in tail-flick assay in words [2]: more potent than HN
CN1CC[C@]23c4c5ccc(O)c4O[C@H]2[C@@H](O)C=C[C@H]3[C@H]1C5 [Morphine, reference compound]	–	0.72 nmol/mouse	–	1.57 nmol/mouse	–	tail-flick latency on repeated dosing ([5]; 10 mg/kg i.p. twice a day): tolerance being developed at days 6 and 8
Cyclo(-Gly-(p-amino)Phe-Tyr-D-Arg-) [Compound I-4]	9.14	2.52 nmol/mouse	–	–	–	analgesia [1]: 71%
Cyclo(-Gly-(p-chloro)Phe-Tyr-(p-amino)Phe-) [Compound I-2]	3.39	6.79 nmol/mouse	–	–	–	–
Cyclo(-Gly-(p-chloro)Phe-Tyr-(p-guanidino)Phe-) [Compound I-3]	21.3	1.08 nmol/mouse	–	–	–	–
[Ser^1] HN: a chemically stable analog of HN	–	–	1	114 nmol/mouse	–	tonic pain [6]: blocked tonic pain; hyperalgesia and allodynia [7]: attenuated hyperalgesia and allodynia; hyperalgesia and allodynia [8]: attenuated hyperalgesia and allodynia
